17 molecules from patent publication US20180289713A1, “COMPOUNDS FOR TREATING AMYOTROPHIC LATERAL SCLEROSIS” (Hoffmann-La Roche Inc., priority 2015, published 2018) can be followed below.

The assay deals with SMN protein in SMA patient fibroblast cells. Put plainly: SMN protein assay in cultured cells (SMN HTRF). The note with it: concentration producing 1.5 times SMN protein vs vehicle; SMA patient fibroblasts, 48 hours, 7-point curve. It counts as cell-based, human. The text has this:
The term “EC1.5× concentration for SMN protein expression” (or “EC1.5× SMN protein”) is defined as that concentration of test compound that is effective in producing 1.5 times the amount of SMN protein in an SMA patient fibroblast cell compared to the amount produced from the vehicle control.
The SMN HTRF (homogeneous time resolved fluorescence) assay is used to quantify the level of SMN protein in SMA patient fibroblast cells treated with test compounds. Materials used and respective sources are listed below in Table 3.
Cells are thawed and cultured in DMEM-10% FBS for 72 hours. Cells are trypsinized, counted and re-suspended to a concentration of 25,000 cells/mL in DMEM-10% FBS. The cell suspensions are plated at 5,000 cells per well in a 96 well microtiter plate and incubated for 3 to […]. Test compounds are serially diluted 3.16-fold in 100% DMSO to generate a 7-point concentration curve. 1 μL of test compound solution is transferred to cell-containing wells and cells are incubated for 48 hours in a cell culture incubator (37° C., 5% CO2, 100% relative humidity). Triplicate samples are set up for each test compound concentration. After 48 hours, the supernatant is removed from the wells and 25 μL of the RIPA lysis buffer, containing protease inhibitors, is added to the wells and incubated with shaking at room temperature for 1 hour. 25 μL of the diluent is added and then 35 μL of the resulting lysate is transferred to a 384-well plate, where each well contains 5 μL of the antibody solution (1:100 dilution of anti-SMN d2 and anti-SMN kryptate in SMN reconstitution buffer). The plate is centrifuged for 1 minute to bring the solution to the bottom of the wells, then incubated overnight at room temperature. Fluorescence for each well of the plate at 665 nm and 620 nm is measured on an EnVision multilabel plate reader (Perkin-Elmer).
The normalized fluorescence signal is calculated for each sample, Blank and vehicle control well by dividing the signal at 665 nm by the signal at 620 nm. Normalizing the signal accounts for possible fluorescence quenching due to the matrix effect of the lysate. The ΔF value (a measurement of SMN protein abundance as a percent value) for each sample well is calculated by subtracting the normalized average fluorescence for the Blank control wells from the normalized fluorescence for each sample well, then dividing this difference by the normalized average fluorescence for the Blank control wells and multiplying the resulting value by 100. The ΔF value for each sample well represents the SMN protein abundance from test compound-treated samples. The ΔF value for each sample well is divided by the ΔF value for the vehicle control wells to calculate the fold increase in SMN protein abundance relative to the vehicle control. Table 4 provides EC1.5× concentrations for SMN protein expression that was obtained from the 7-point concentration data generated according to the above procedure for particular compounds of the present invention.
Table 5 provides the maximum fold increase of SMN protein that was obtained from the 7-point concentration data generated according to the above procedure for particular compounds of the present invention
In general terms: TR-FRET usually uses a lanthanide donor and a delayed reading to cut background.

`Cc1cn2nc(-c3cc(=O)n4cc(N5CCCNCC5)ccc4n3)ccc2n1` [Example 13, 7-(1,4-diazepan-1-yl)-2-(2-methylimidazo[1,2-b]pyridazin-6-yl)pyrido[1,2-a]pyrimidin-4-one]: the “EC1.5x SMN protein” value is on record as 3 nM.

Consider `Cc1cn2nc(-c3cc(=O)n4cc(N5CCNC6(CC6)C5)ccc4n3)cc(C)c2n1` [Example 20, 7-(4,7-diazaspiro[2.5]octan-7-yl)-2-(2,8-dimethylimidazo[1,2-b]pyridazin-6-yl)pyrido[1,2-a]pyrimidin-4-one], for which the “EC1.5x SMN protein” value is 37 nM.

Consider `Cc1cn2nc(-c3cc(=O)n4cc(N5CCN[C@@H](C)C5)cc(C)c4n3)cc(C)c2n1` [Example 24, 2-(2,8-dimethylimidazo[1,2-b]pyridazin-6-yl)-9-methyl-7-[(3S)-3-methylpiperazin-1-yl]pyrido[1,2-a]pyrimidin-4-one], for which the “EC1.5x SMN protein” value is 4.7 nM. The figure for `Cc1cn2nc(-c3cc(=O)n4cc(N5CCN[C@@H](C)C5)cc(C)c4n3)ccc2n1` [Example 33, 9-methyl-2-(2-methylimidazo[1,2-b]pyridazin-6-yl)-7-[(3S)-3-methylpiperazin-1-yl]pyrido[1,2-a]pyrimidin-4-one] is 4 nM. The figure for `Cc1cn2nc(-c3cc(=O)n4cc(N5CCN[C@H](C)C5)cc(C)c4n3)ccc2n1` [Example 34, 9-methyl-2-(2-methylimidazo[1,2-b]pyridazin-6-yl)-7-[(3R)-3-methylpiperazin-1-yl]pyrido[1,2-a]pyrimidin-4-one] is 4.4 nM; for `Cc1cn2nc(-c3cc(=O)n4cc(N5C[C@H](C)N[C@@H](C)C5)ccc4n3)cc(C)c2n1` [Example 29, 2-(2,8-dimethylimidazo[1,2-b]pyridazin-6-yl)-7-[(3S,5S)-3,5-dimethylpiperazin-1-yl]pyrido[1,2-a]pyrimidin-4-one] it is 2.1 nM; for `Cc1cn2nc(-c3cc(=O)n4cc(N5CCN[C@H](C)C5)ccc4n3)ccc2n1` [Example 12, 2-(2-methylimidazo[1,2-b]pyridazin-6-yl)-7-[(3R)-3-methylpiperazin-1-yl]pyrido[1,2-a]pyrimidin-4-one] it is 7.5 nM. The figure for `Cc1cn2nc(-c3cc(=O)n4cc(N5C[C@H](C)N[C@@H](C)C5)cc(C)c4n3)ccc2n1` [Example 38, 7-[(3S,5S)-3,5-dimethylpiperazin-1-yl]-9-methyl-2-(2-methylimidazo[1,2-b]pyridazin-6-yl)pyrido[1,2-a]pyrimidin-4-one] is 3.1 nM; for `Cc1cn2nc(-c3cc(=O)n4cc(N5C[C@H](C)N[C@@H](C)C5)ccc4n3)ccc2n1` [Example 32, 7-[(3S,5S)-3,5-dimethylpiperazin-1-yl]-2-(2-methylimidazo[1,2-b]pyridazin-6-yl)pyrido[1,2-a]pyrimidin-4-one] it is 4 nM; for `Cc1cn2nc(-c3cc(=O)n4cc(N5CCNC6(CC6)C5)cc(C)c4n3)ccc2n1` [Example 37, 7-(4,7-diazaspiro[2.5]octan-7-yl)-9-methyl-2-(2-methylimidazo[1,2-b]ipyridazin-6-yl)pyrido[1,2-a]pyrimidin-4-one] it is 45 nM.

For the molecule `Cc1cn2nc(-c3cc(=O)n4cc(N5CCN6CCC[C@]6(C)C5)ccc4n3)cc(C)c2n1` [Example 6, 7-[(8aR)-8a-methyl-1,3,4,6,7,8-hexahydropyrrolo[1,2-a]pyrazin-2-yl]-2-(2,8-dimethylimidazo[1,2-b]pyridazin-6-yl)pyrido[1,2-a]pyrimidin-4-one], the “EC1.5x SMN protein” value is 11 nM. For `Cc1cn2nc(-c3cc(=O)n4cc(N5CCN6CCC[C@@]6(C)C5)ccc4n3)ccc2n1` [Example 16, 7-[(8aS)-8a-methyl-1,3,4,6,7,8-hexahydropyrrolo[1,2-a]pyrazin-2-yl]-2-(2-methylimidazo[1,2-b]pyridazin-6-yl)pyrido[1,2-a]pyrimidin-4-one] the value was 3 nM; for `Cc1cn2nc(-c3cc(=O)n4cc(N5CCN[C@@H](C)C5)ccc4n3)ccc2n1` [Example 11, 2-(2-methylimidazo[1,2-b]pyridazin-6-yl)-7-[(3S)-3-methylpiperazin-1-yl]pyrido[1,2-a]pyrimidin-4-one], 7 nM; for `Cc1cn2nc(-c3cc(=O)n4cc(N5CCN[C@@H](C)C5)ccc4n3)cc(C)c2n1` [Example 8, 2-(2,8-dimethylimidazo[1,2-b]pyridazin-6-yl)-7-[(3S)-3-methylpiperazin-1-yl]pyrido[1,2-a]pyrimidin-4-one], 5.9 nM.

For `Cc1cn2nc(-c3cc(=O)n4cc(N5CCN[C@H](C)C5)ccc4n3)cc(C)c2n1` [Example 9, 2-(2,8-dimethylimidazo[1,2-b]pyridazin-6-yl)-7-[(3R)-3-methylpiperazin-1-yl]pyrido[1,2-a]pyrimidin-4-one], the “EC1.5x SMN protein” value is 2.5 nM.

Regarding `Cc1cn2nc(-c3cc(=O)n4cc(N5CCN6CCC[C@@]6(C)C5)ccc4n3)cc(C)c2n1` [Example 5, 7-[(8aS)-8a-methyl-1,3,4,6,7,8-hexahydropyrrolo[1,2-a]pyrazin-2-yl]-2-(2,8-dimethylimidazo[1,2-b]pyridazin-6-yl)pyrido[1,2-a]pyrimidin-4-one], the “EC1.5x SMN protein” value worked out at 4.1 nM. As to `Cc1cn2nc(-c3cc(=O)n4cc(N5CC[C@@H](N6CCCC6)C5)ccc4n3)cc(C)c2n1` [Example 18, 2-(2,8-dimethylimidazo[1,2-b]pyridazin-6-yl)-7-[(3R)-3-pyrrolidin-1-ylpyrrolidin-1-yl]pyrido[1,2-a]pyrimidin-4-one], the “EC1.5x SMN protein” value amounted to 25 nM.
